Data: ChEMBL document CHEMBL1149529 (Bioorg Med Chem Lett, 2007)

Assays:
[1] = Clearance in rat at 5 mg/kg, iv; type: ADME, organism-based; parameters: dose 5 mg/kg, route intravenous; details: in vivo
[2] = Oral bioavailability in rat at 15 mg/kg, po; type: ADME, organism-based; details: in vivo

clearance [1]	bioavailability [2]	SMILES
35 mL/min/kg	29%	Cc1c(CN(C)C[C@@H](O)c2ncccn2)sc2c(=O)c(C(=O)NCc3ccc(F)cc3)cn(C)c12
46.7 mL/min/kg	45%	CN(CC1=CC2C(=O)C(C(=O)NCc3ccc(Cl)cc3)=CN(C)C2S1)C[C@@H](O)c1ccccn1 (stereo partly specified)
23.3 mL/min/kg	30%	Cc1c(CN(C)C[C@@H](O)c2ccccn2)sc2c(=O)c(C(=O)NCc3ccc(Cl)cc3)cn(C)c12
